Earlier results, collected in patent publication US8637078B2, “Bilayer tablet comprising telmisartan and diuretic” (Boehringer Ingelheim International GmbH, priority 2005, dated 2014).

Assays:
[1] = composition with 3 to 50 wt. % telmisartan in dissolving matrix (basic agent, surfactant or emulsifier, water-soluble diluent); known from WO 2004/028505
[2] = both polymorphic forms A and B; physiological pH range of the gastrointestinal tract, pH 1 to 7

## CCCc1nc2c(C)cc(-c3nc4ccccc4n3C)cc2n1Cc1ccc(-c2ccccc2C(=O)O)cc1 [telmisartan, 4′-[2-n-propyl-4-methyl-6-(1-methylbenzimidazol-2-yl)-benzimidazol-1-ylmethyl]-biphenyl-2-carboxylic acid]
[1]
  solubility raised by a factor: several hundred
[2]
  solubility in aqueous systems: very poor solubility
